This note sets out measurements from patent publication US7816522B2, “Triazolone derivatives” (Eisai Co., Ltd., priority 2006, dated 2010).

A word on the IC50: it is the midpoint of a concentration-inhibition curve. Low readings indicate inhibition by little substance, high ones a need for much substance.

Counter-ions that a name gives are not always drawn.

In this experiment the target is T1, human clotting factor VIIa (Homo sapiens, UniProt P08709).
T1 construct: a human clotting factor VIIa (hereinafter, “Factor VIIa”) purified sample; purchased Enzyme Research Laboratories HFVIIa
T1 sequence (P08709 213-466 limits assumed): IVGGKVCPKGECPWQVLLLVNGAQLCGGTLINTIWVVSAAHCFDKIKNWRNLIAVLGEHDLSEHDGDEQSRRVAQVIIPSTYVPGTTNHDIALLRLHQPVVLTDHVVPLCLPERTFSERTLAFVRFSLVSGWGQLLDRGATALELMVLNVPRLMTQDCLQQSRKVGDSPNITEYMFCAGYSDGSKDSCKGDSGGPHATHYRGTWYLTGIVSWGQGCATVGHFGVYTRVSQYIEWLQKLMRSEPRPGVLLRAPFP
T1 sequence (P08709 61-212 limits assumed): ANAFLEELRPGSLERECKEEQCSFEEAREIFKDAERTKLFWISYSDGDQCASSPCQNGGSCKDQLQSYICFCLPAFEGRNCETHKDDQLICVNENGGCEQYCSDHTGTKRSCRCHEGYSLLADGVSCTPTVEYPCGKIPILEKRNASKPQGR
T1 sequence (P13726 33-295 partner): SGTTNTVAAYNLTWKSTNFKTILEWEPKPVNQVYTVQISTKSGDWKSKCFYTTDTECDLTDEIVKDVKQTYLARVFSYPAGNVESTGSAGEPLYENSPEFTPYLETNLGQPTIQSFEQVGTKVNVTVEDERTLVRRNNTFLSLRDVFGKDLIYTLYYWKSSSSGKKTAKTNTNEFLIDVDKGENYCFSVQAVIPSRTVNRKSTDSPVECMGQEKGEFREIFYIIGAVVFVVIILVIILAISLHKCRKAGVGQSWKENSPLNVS
Briefly: Inhibitory activity against clotting factor VIIa (chromogenic substrate Spectrozyme FVIIa, TF/Factor VIIa enzyme solution). In kind it is biochemical. The following applies: human Factor VIIa 5 nmol/L with human TF 10 nmol/L, room temperature 40 minutes, 405 nm. The essentials: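 Human Factor VIIa (5 nmol/L) with human TF (10 nmol/L) in Tris-BSA buffer pH 7.4 containing 15 mmol/L CaCl2 and cephalin, with Spectrozyme FVIIa substrate. Reaction 40 min at room temperature; 4-nitroanilide read at 405 nm. IC50 by non-linear regression over 100 μmol/L–0.1 nmol/L.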

Turning to `CCc1cc(OCCOC)cc(C(Nc2ccc(C(=N)N)cc2)c2nn(-c3ncccn3)c(=O)[nH]2)c1` (racemic) [Example 76, (R) and (S)-4-({[3-ethyl-5-(2-methoxyethoxy)phenyl]-(5-oxo-1-pyrimidin-2-yl-4,5-dihydro-1H-[1,2,4]triazol-3-yl)methyl}amino)benzamidine trifluoroacetate], 5.2 nM corresponded to half-maximal inhibition (IC50).
In the case of `CCOc1cc(OCCF)cc(C(Nc2ccc(C(=N)N)cc2)c2nn(-c3ncccn3)c(=O)[nH]2)c1` (racemic) [Example 78, (R) and (S)-4-({[3-ethoxy-5-(2-fluoroethoxy)phenyl]-(5-oxo-1-pyrimidin-2-yl-4,5-dihydro-1H-[1,2,4]triazol-3-yl)methyl}amino)benzamidine trifluoroacetate], the 50% inhibitory concentration (IC50) came to 12.5 nM.
The same measure for `CCOc1cc(OCC)cc(C(Nc2ccc(C(=N)N)cc2)c2nn(-c3ncccn3)c(=O)[nH]2)c1` (racemic) [Example 79, (R) and (S)-4-{[(3,5-diethoxyphenyl)-(5-oxo-1-pyrimidin-2-yl-4,5-dihydro-1H-[1,2,4]triazol-3-yl)methyl]amino}benzamidine trifluoroacetate]: 7.6 nM; for `CCOc1cc(OCCF)cc(C(Nc2ccc(C(=N)N)cc2)c2nn(-c3cccnn3)c(=O)[nH]2)c1` (racemic) [Example 80, (R) and (S)-4-({[3-ethoxy-5-(2-fluoroethoxy)phenyl]-(5-oxo-1-pyridazin-3-yl-4,5-dihydro-1H-[1,2,4]triazol-3-yl)methyl}amino)benzamidine acetate]: 6.8 nM.
As for `COc1cc(C(Nc2ccc(C(=N)N)cc2)c2nn(-c3ncccn3)c(=O)[nH]2)ccc1OCCF` (racemic) [Example 81, (R) and (S)-4-({[4-(2-fluoroethoxy)-3-methoxyphenyl]-(5-oxo-1-pyrimidin-2-yl-4,5-dihydro-1H-[1,2,4]triazol-3-yl)methyl}amino)benzamidine acetate], the IC50 is 18.6 nM.
Molecule `COc1cc(C(Nc2ccc(C(=N)N)cc2)c2nn(-c3ncccn3)c(=O)[nH]2)cc2c1OCC2OC` (racemic) [Example 82, (R) and (S)-4-({(3,7-dimethoxy-2,3-dihydrobenzofuran-5-yl)-(5-oxo-1-pyrimidin-2-yl-4,5-dihydro-1H-[1,2,4]triazol-3-yl)methyl}amino)benzamidine acetate] had a concentration for half-maximal inhibition (IC50) of 7.5 nM.
As to `C=CCOc1cc(COC)cc(C(Nc2ccc(C(=N)N)cc2)c2nn(-c3ncccn3)c(=O)[nH]2)c1` (racemic) [Example 85, 4-{[(R) and (S)-(3-allyloxy-5-methoxymethylphenyl)-(5-oxo-1-pyrimidin-2-yl-4,5-dihydro-1H-[1,2,4]triazol-3-yl)methyl]amino}benzamidine acetate], the 50% inhibitory concentration (IC50) came out at 15.3 nM.
The same measure for `COc1cc(C(Nc2ccc(C(=N)N)cc2)c2nn(-c3cccnn3)c(=O)[nH]2)cc(OC)c1OC` (racemic) [Example 88, 4-{[(R) and (S)-(5-oxo-1-pyridazin-3-yl-4,5-dihydro-1H-[1,2,4]triazol-3-yl)-(3,4,5-trimethoxyphenyl)methyl]amino}benzamidine trifluoroacetate]: 8.5 nM; for `COc1cc(C(Nc2ccc(C(=N)N)cc2)c2nn(-c3cccnn3)c(=O)[nH]2)cc(OCCF)c1OC` (racemic) [Example 89, 4-{[(R) and (S)-[3-(2-fluoroethoxy)-4,5-dimethoxyphenyl]-(5-oxo-1-pyridazin-3-yl-4,5-dihydro-1H-[1,2,4]triazol-3-yl)methyl]amino}benzamidine acetate]: 9.2 nM; for `COCCOc1cc(OC)cc(C(Nc2ccc(C(=N)N)cc2)c2nn(-c3ncccn3)c(=O)[nH]2)c1F` (racemic) [Example 92, 4-{[(R) and (S)-[2-fluoro-5-methoxy-3-(2-methoxyethoxy)phenyl]-(5-oxo-1-pyrimidin-2-yl-4,5-dihydro-1H-[1,2,4]triazol-3-yl)methyl]amino}benzamidine acetate]: 11.6 nM.
In the case of `COc1cc(C)cc(C(Nc2ccc(C(=N)N)cc2)c2nn(-c3ncccn3)c(=O)[nH]2)c1` (racemic) [Example 93, 4-{[(R) and (S)-(3-methoxy-5-methylphenyl)-(5-oxo-1-pyrimidin-2-yl-4,5-dihydro-1H-[1,2,4]triazol-3-yl)methyl]amino}benzamidine acetate], the IC50 came to 30.3 nM.
Regarding `COCCOc1cc(C)cc(C(Nc2ccc(C(=N)N)cc2)c2nn(-c3ncccn3)c(=O)[nH]2)c1` (racemic) [Example 94, 4-{[(R) and (S)-[3-(2-methoxyethoxy)-5-methylphenyl]-(5-oxo-1-pyrimidin-2-yl-4,5-dihydro-1H-[1,2,4]triazol-3-yl)methyl]amino}benzamidine acetate], the IC50 was 12.7 nM.
Turning to `COc1ccccc1-n1nc(C(Nc2ccc(C(=N)N)cc2)c2cc3c(c(OC)c2)OCOC3)[nH]c1=O` (racemic) [Example 95, 4-({(R) and (S)-(8-methoxy-4H-benzo[1,3]dioxin-6-yl)-[1-(2-methoxyphenyl)-5-oxo-4,5-dihydro-1H-[1,2,4]triazol-3-yl]methyl}amino)benzamidine acetate], half-maximal inhibition (IC50) was put at 1.3 nM.
Turning to `CCOc1ccc(F)c(C(Nc2ccc(C(=N)N)cc2)c2nn(-c3ncccn3)c(=O)[nH]2)c1` (racemic) [Example 96, 4-{[(R) and (S)-(5-ethoxy-2-fluorophenyl)-(5-oxo-1-pyrimidin-2-yl-4,5-dihydro-1H-[1,2,4]triazol-3-yl)methyl]amino}benzamidine acetate], the IC50 was 17 nM.
`Cc1cc(C(Nc2ccc(C(=N)N)cc2)c2nn(-c3ncccn3)c(=O)[nH]2)cc2c1OCOC2` (racemic) [Example 97, 4-{[(R) and (S)-(8-methyl-4H-benzo[1,3]dioxin-6-yl)-(5-oxo-1-pyrimidin-2-yl-4,5-dihydro-1H-[1,2,4]triazol-3-yl)methyl]amino}benzamidine acetate] came in with a half-inhibitory concentration (IC50) of 11.3 nM.
`N=C(N)c1ccc(NC(c2nn(-c3ncccn3)c(=O)[nH]2)c2cc(OCCF)cc(OCCF)c2F)cc1` (racemic) [Example 98, 4-{[(R) and (S)-[2-fluoro-3,5-bis-(2-fluoroethoxy)phenyl]-(5-oxo-1-pyrimidin-2-yl-4,5-dihydro-1H-[1,2,4]triazol-3-yl)methyl]amino}benzamidine acetate] yielded a 50% inhibitory concentration (IC50) of 28.7 nM.
Consider `COc1cc(OCC(F)F)c(F)c(C(Nc2ccc(C(=N)N)cc2)c2nn(-c3ncccn3)c(=O)[nH]2)c1` (racemic) [Example 99, 4-{[(R) and (S)-[3-(2,2-difluoroethoxy)-2-fluoro-5-methoxyphenyl]-(5-oxo-1-pyrimidin-2-yl-4,5-dihydro-1H-[1,2,4]triazol-3-yl)methyl]amino}benzamidine acetate], for which 3.9 nM corresponded to half-maximal inhibition (IC50).
On to `COc1cc(OCCF)c(F)c(C(Nc2ccc(C(=N)N)cc2)c2nn(-c3cnccn3)c(=O)[nH]2)c1` (racemic) [Example 100, 4-{[(R) and (S)-[2-fluoro-3-(2-fluoroethoxy)-5-methoxyphenyl]-(5-oxo-1-pyrazin-2-yl-4,5-dihydro-1H-[1,2,4]triazol-3-yl)methyl]amino}benzamidine acetate], for which half-maximal inhibition (IC50) required 5.3 nM.
`COc1cc(F)c(C(Nc2ccc(C(=N)N)cc2)c2nn(-c3cnccn3)c(=O)[nH]2)cc1OC` (racemic) [Example 101, 4-{[(R) and (S)-(2-fluoro-4,5-dimethoxyphenyl)-(5-oxo-1-pyrazin-2-yl-4,5-dihydro-1H-[1,2,4]triazol-3-yl)methyl]amino}benzamidine acetate]: half-maximal inhibition (IC50) required 11 nM.
As for `COc1cc(C(Nc2ccc(C(=N)N)cc2)c2nn(-c3cnccn3)c(=O)[nH]2)cc2c1OCOC2` (racemic) [Example 102, 4-{[(R) and (S)-(8-methoxy-4H-benzo[1,3]dioxin-6-yl)-(5-oxo-1-pyrazin-2-yl-4,5-dihydro-1H-[1,2,4]triazol-3-yl)methyl]amino}benzamidine acetate], the figure is 11.5 nM; as for `COc1cc(OCF)c(F)c(C(Nc2ccc(C(=N)N)cc2)c2nn(-c3ncccn3)c(=O)[nH]2)c1` (racemic) [Example 103, 4-{[(R) and (S)-(2-fluoro-3-fluoromethoxy-5-methoxyphenyl)-(5-oxo-1-pyrimidin-2-yl-4,5-dihydro-1H-[1,2,4]triazol-3-yl)methyl]amino}benzamidine acetate], 8.9 nM; as for `COc1cc(OCF)cc(C(Nc2ccc(C(=N)N)cc2)c2nn(-c3ncccn3)c(=O)[nH]2)c1` (racemic) [Example 104, 4-{[(R) and (S)-(3-fluoromethoxy-5-methoxyphenyl)-(5-oxo-1-pyrimidin-2-yl-4,5-dihydro-1H-[1,2,4]triazol-3-yl)methyl]amino}benzamidine acetate], 8.9 nM.
In the case of `COC(=O)c1ccccc1-n1nc(C(Nc2ccc(C(=N)N)cc2)c2cc(OC)c(OC)cc2F)[nH]c1=O` (racemic) [Example 108, (R) and (S)-2-{3-[(4-carbamimidoylphenylamino)-(2-fluoro-4,5-dimethoxyphenyl)methyl]-5-oxo-4,5-dihydro-[1,2,4]triazol-1-yl}benzoic acid methyl ester acetate], the IC50 was determined as 8 nM.
In turn, `COc1cc(F)c(C(Nc2ccc(C(=N)N)cc2)c2nn(-c3ccccc3C(N)=O)c(=O)[nH]2)cc1OC` (racemic) [Example 109, (R) and (S)-2-{3-[(4-carbamimidoylphenylamino)-(2-fluoro-4,5-dimethoxyphenyl)methyl]-5-oxo-4,5-dihydro-1H-[1,2,4]triazol-1-yl}benzamide acetate] came in with a concentration for half-maximal inhibition (IC50) of 7.9 nM.
In the case of `COc1ccc(C(Nc2ccc(C(=N)N)cc2)c2nn(-c3ccccc3C(N)=O)c(=O)[nH]2)cc1OC` (racemic) [Example 110, (R) and (S)-2-{3-[(4-carbamimidoylphenylamino)-(3,4-dimethoxyphenyl)methyl]-5-oxo-4,5-dihydro-1H-[1,2,4]triazol-1-yl}benzamide acetate], it took 6.6 nM to reach half-maximal inhibition (IC50).
